molecular target: T1, human aquaporin 9 (Homo sapiens, UniProt O43315); assay: Calcein quenching fluostar assay; assay type: cell-based; conditions: inhibition of human aquaporin 9; Human AQP9 cell line, tetracyclin-induced; 25° C.
T1 construct: expressed in transfected cells; host or cells: Human AQP9 cell line with tetracycline added to the medium
T1 sequence (O43315 1-295): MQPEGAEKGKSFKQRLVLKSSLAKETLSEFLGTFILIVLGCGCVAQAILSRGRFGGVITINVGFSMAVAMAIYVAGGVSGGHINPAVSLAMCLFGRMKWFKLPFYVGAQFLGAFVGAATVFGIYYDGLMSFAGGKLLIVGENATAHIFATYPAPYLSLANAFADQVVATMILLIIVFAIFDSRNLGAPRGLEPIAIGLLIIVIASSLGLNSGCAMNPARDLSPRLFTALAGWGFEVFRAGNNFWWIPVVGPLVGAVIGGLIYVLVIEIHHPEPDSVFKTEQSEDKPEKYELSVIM
Experimental: Calcein Quenching Fluostar Assay
A calcein quenching fluostar assay was performed in order to investigate the biological activity of the newly synthesized examples 1 to 57. This type of assay is disclosed in J. Biol. Chem., 2011, 286, 44319-44325 and Am. J. Physiol. Renal Physiol. (2010), 298, F224-230.
1) Two days prior to commencement of the assay, seed 10,000 cells/well of 96 well black clear bottom plate (Greiner Poly-lysin plate). A 1:1 mix of Dulbecco's Modified Eagle's Medium:Nutrient Mixture F-12 (DMEM: F12) was obtained from Gibco. Tetracycline stock of 5 mg/ml in 96% ethanol is used. Medium:DMEM/F12/10% Donor Bovine Serum, Human AQP9 cell line+1:270,000 tetracyclin, mouse AQP9 cell line+1:2,700,000 tetracycline.
2) Day of assay: Flick/slam off the medium and add 50 μl/well of loading solution: 5 ml DMEM/F12/10% Donor Bovine Serum, 25 μl Calcein AM—from freshly dissolved aliquot in 50 μl DMSO (VWR #734-1434), and 100 μl Probenecid.
3) Incubate the well for 90 minutes at 37° C.
4) Perform one wash with 75 μl wash buffer.
5) Add 75 μl of an example compound prepared in wash buffer per well.
Example compounds are prepared in 500 μl U bottom PP plates (NUNC). […] Substance in DMSO are added to row A; 180 μl of wash buffer+1% DMSO are added to rows B-H. 90 μl from row A are transferred and mixed with all other wells (up to row G) to make a 3-fold dilution series.
6) Assay in FLUOstar Optima at 25° C. Settings buffer addition at 135 μl seconds, add 75 μl/well, record time course for 30 seconds, add sucrose buffer 3.6 seconds into recording.
7) Normalization to initial in Excel.
8) Fit to “exponential decay” function in GraphPad Prism 5.0, then arrange half live shrinking values according to wells and fit dose-response curves.

| SMILES | IC50 |
| --- | --- |
| COc1ccc(-c2nnc(NC(=O)CSc3nnc(-c4ccncc4)n3C)s2)cc1 [Example 10, N-[5-(4-methoxyphenyl)-1,3,4-thiadiazol-2-yl]-2-{[4-methyl-5-(pyridin-4-yl)-4H-1,2,4-triazol-3-yl]sulfanyl}acetamide] | 37 nM |
| CCn1c(SCC(=O)Nc2nnc(-c3ccc(OC)cc3)s2)nnc1-c1ccc(F)cc1 [Example 11, 2-{[4-Ethyl-5-(4-fluorophenyl)-4H-1,2,4-triazol-3-yl]sulfanyl}-N-[5-(4-methoxyphenyl)-1,3,4-thiadiazol-2-yl]acetamide] | 40 nM |
| CCn1c(SCC(=O)Nc2nnc(-c3ccc(OC)cc3)s2)nnc1-c1ccccc1C [Example 13, 2-{[4-Ethyl-5-(2-methylphenyl)-4H-1,2,4-triazol-3-yl]sulfanyl}-N-[5-(4-methoxyphenyl)-1,3,4-thiadiazol-2-yl]acetamide] | 323 nM |
| CCn1c(SCC(=O)Nc2nnc(-c3ccc(OC)cc3)s2)nnc1-c1cccc(C)c1 [Example 14, 2-{[4-Ethyl-5-(3-methylphenyl)-4H-1,2,4-triazol-3-yl]sulfanyl}-N-[5-(4-methoxyphenyl)-1,3,4-thiadiazol-2-yl]acetamide] | 172 nM |
| CCn1c(SCC(=O)Nc2nnc(-c3ccc(OC)cc3)s2)nnc1-c1ccc(C)cc1 [Example 15, 2-{[4-Ethyl-5-(4-methylphenyl)-4H-1,2,4-triazol-3-yl]sulfanyl}-N-[5-(4-methoxyphenyl)-1,3,4-thiadiazol-2-yl]acetamide] | 262 nM |
| CCn1c(SCC(=O)Nc2nnc(-c3ccc(OC)cc3)s2)nnc1-c1ccc(OC)cc1 [Example 16, 2-{[4-Ethyl-5-(4-methoxyphenyl)-4H-1,2,4-triazol-3-yl]sulfanyl}-N-[5-(4-methoxyphenyl)-1,3,4-thiadiazol-2-yl]acetamide] | 269 nM |
| CCn1c(SCC(=O)Nc2nnc(-c3ccc(OC)cc3)s2)nnc1-c1cccc(F)c1 [Example 18, 2-{[4-Ethyl-5-(3-fluorophenyl)-1,2,4-triazol-3-yl]sulfanyl}-N-[5-(4-methoxyphenyl)-1,3,4-thiadiazol-2-yl]acetamide] | 135 nM |
| CCn1c(SCC(=O)Nc2nnc(-c3ccc(OC)cc3)s2)nnc1-c1ccccc1Cl [Example 19, 2-{[5-(2-Chlorophenyl)-4-ethyl-4H-1,2,4-triazol-3-yl]sulfanyl}-N-[5-(4-methoxyphenyl)-1,3,4-thiadiazol-2-yl]acetamide] | 233 nM |
| CCn1c(SCC(=O)Nc2nnc(-c3ccc(OC)cc3)s2)nnc1-c1cccnc1 [Example 20, 2-{[4-Ethyl-5-(pyridin-3-yl)-4H-1,2,4-triazol-3-yl]sulfanyl}-N-[5-(4-methoxyphenyl)-1,3,4-thiadiazol-2-yl]acetamide] | 56 nM |
| CCn1c(SCC(=O)Nc2nnc(-c3ccc(OC)cc3)s2)nnc1-c1ccncc1 [Example 21, 2-{[4-Ethyl-5-(pyridin-4-yl)-4H-1,2,4-triazol-3-yl]sulfanyl}-N-[5-(4-methoxyphenyl)-1,3,4-thiadiazol-2-yl]acetamide] | 68 nM |
| CCn1c(SCC(=O)Nc2nnc(-c3ccc(OC)cc3)s2)nnc1-c1cccc(OC)c1 [Example 22, 2-{[4-Ethyl-5-(3-methoxyphenyl)-4H-1,2,4-triazol-3-yl]sulfanyl}-N-[5-(4-methoxyphenyl)-1,3,4-thiadiazol-2-yl]acetamide] | 160 nM |

Other lines, results leading:

| IC50 | SMILES |
| --- | --- |
| 393 nM | Cn1c(SCC(=O)Nc2nnc(-c3ccc(F)cc3)s2)nnc1-c1ccc(F)cc1 [Example 1, N-[5-(4-fluorophenyl)-1,3,4-thiadizole-2-yl]-2-{[5-(4-fluorophenyl)-4-methyl-4H-1,2,4-triazole-3-yl]sulfanyl}acetamide] |
| 193 nM | Cn1c(SCC(=O)Nc2nnc(-c3ccccc3F)s2)nnc1-c1ccncc1 [Example 2, N-[5-(2-fluorophenyl)-1,3,4-thiadiazol-2-yl]-2-{[4-methyl-5-(pyridin-4-yl)-4H-1,2,4-triazol-3-yl]sulfanyl}acetamide] |
| 1290 nM | Cn1c(SCC(=O)Nc2nnc(-c3cccc(F)c3)s2)nnc1-c1ccc(F)cc1 [Example 3, N-[5-(3-fluorophenyl)-1,3,4-thiadizole-2-yl]-2-{[5-(4-fluorophenyl)-4-methyl-4H-1,2,4-triazole-3-yl]sulfanyl}acetamide] |
| 4740 nM | COc1ccccc1-c1nnc(NC(=O)CSc2nnc(-c3ccc(F)cc3)n2C)s1 [Example 4, 2-{[5-(4-Fluorophenyl)-4-methyl-4H-1,2,4-triazole-3-yl]sulfanyl}-N-[5-(2-methoxyphenyl)-1,3,4-thiadizole-2-yl]-acetamide] |
| 4830 nM | CCn1c(SCC(=O)Nc2nnc(-c3cccc(OC)c3)s2)nnc1-c1ccc(F)cc1 [Example 5, 2-{[4-ethyl-5-(4-fluorophenyl)-4H-1,2,4-triazol-3-yl]sulfanyl}-N-[5-(3-methoxyphenyl)-1,3,4-thiadiazol-2-yl]acetamide] |
| 253 nM | COc1ccc(-c2nnc(NC(=O)CSc3nnc(-c4ccc(F)cc4)n3C)s2)cc1 [Example 6, 2-{[5-(4-Fluorophenyl)-4-methyl-4H-1,2,4-triazole-3-yl]sulfanyl}-N-[5-(4-methoxyphenyl)-1,3,4-thiadizole-2-yl]-acetamide] |
| 260 nM | Cn1c(SCC(=O)Nc2nnc(-c3ccccc3F)s2)nnc1-c1ccc(Cl)cc1 [Example 7, 2-{[5-(4-Chlorophenyl)-4-methyl-4H-1,2,4-triazole-3-yl]sulfanyl}-N-[5-(2-fluorophenyl)-1,3,4-thiadizole-2-yl]-acetamide] |
| 157 nM | Cn1c(SCC(=O)Nc2nnc(-c3ccccc3F)s2)nnc1-c1ccc(F)cc1 [Example 8, 2-{[5-(4-Fluorophenyl)-4-methyl-4H-1,2,4-triazole-3-yl]sulfanyl}-N-[5-(2-fluorophenyl)-1,3,4-thiadizole-2-yl]-acetamide] |
| 112 nM | Cn1c(SCC(=O)Nc2nnc(-c3ccc(F)cc3)s2)nnc1-c1ccncc1 [Example 9, N-[5-(4-fluorophenyl)-1,3,4-thiadiazol-2-yl]-2-{[4-methyl-5-(pyridin-4-yl)-4H-1,2,4-triazol-3-yl]sulfanyl}acetamide] |
| 56 nM | CCn1c(SCC(=O)Nc2nnc(-c3ccc(F)cc3)s2)nnc1-c1ccc(F)cc1 [Example 12, 2-{[4-Ethyl-5-(4-fluorophenyl)-4H-1,2,4-triazol-3-yl]sulfanyl}-N-[5-(4-fluorophenyl)-1,3,4-thiadiazol-2-yl]acetamide] |
| 139 nM | CCn1c(SCC(=O)Nc2nnc(-c3ccc(OC)cc3)s2)nnc1-c1ccccc1F [Example 17, 2-{[4-Ethyl-5-(2-fluorophenyl)-4H-1,2,4-triazol-3-yl]sulfanyl}-N-[5-(4-methoxyphenyl)-1,3,4-thiadiazol-2-yl]acetamide] |
| 372 nM | CCn1c(SCC(=O)Nc2nnc(-c3ccc(F)cc3)s2)nnc1-c1cccc(C)c1 [Example 23] |
| 427 nM | CCn1c(SCC(=O)Nc2nnc(-c3ccc(F)cc3)s2)nnc1-c1ccc(C)cc1 [Example 24, 2-{[4-Ethyl-5-(4-methylphenyl)-4H-1,2,4-triazol-3-yl]sulfanyl}-N-[5-(4-fluorophenyl)-1,3,4-thiadiazol-2-yl]acetamide] |
| 375 nM | CCn1c(SCC(=O)Nc2nnc(-c3ccc(F)cc3)s2)nnc1-c1cccc(OC)c1 [Example 25, 2-{[4-Ethyl-5-(3-methoxyphenyl)-4H-1,2,4-triazol-3-yl]sulfanyl}-N-[5-(4-fluorohenyl)-1,3,4-thiadiazol-2-yl]acetamide] |
